Source: ChEMBL document CHEMBL1201862, “PubChem BioAssay data set” (2004)
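Values below derive from 48-hour exposures of cells grown in 96-well plates, with endpoints linearly interpolated between the two concentrations bracketing the appropriate inhibition level. Here, GI50 denotes the concentration required for 50% inhibition of growth.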 Calls of active or inactive are those of the source. Cut-off read from the data, not from the text of the source: active = GI50 up to about 1.1 µM and inactive = higher.

What was measured:
Assay in all cases: NCI anticancer screen, dose series, 48 h
MDA-MB-435 = tested on: MDA-MB-435
SF-268 = tested on: SF-268
PC-3 = tested on: PC-3
NCI-H522 = tested on: NCI-H522
SF-539 = tested on: SF-539
KM12 = tested on: KM12
DU-145 = tested on: DU-145
RXF 393 = tested on: RXF 393
HCT-15 = tested on: HCT-15
SW-620 = tested on: SW-620
786-0 = tested on: 786-0
Hs-578T = tested on: Hs-578T
SK-MEL-28 = tested on: SK-MEL-28
SF-295 = tested on: SF-295
OVCAR-4 = tested on: OVCAR-4
M14 = tested on: M14
HL-60 = tested on: HL-60
UACC-62 = tested on: UACC-62

| SMILES | GI50 (MDA-MB-435) | GI50 (SF-268) | GI50 (PC-3) | GI50 (NCI-H522) | GI50 (SF-539) | GI50 (KM12) | GI50 (DU-145) | GI50 (RXF 393) | GI50 (HCT-15) | GI50 (SW-620) | GI50 (786-0) | GI50 (Hs-578T) | GI50 (SK-MEL-28) | GI50 (SF-295) | GI50 (OVCAR-4) | GI50 (M14) | GI50 (HL-60) | GI50 (UACC-62) |
| --- | --- | --- | --- | --- | --- | --- | --- | --- | --- | --- | --- | --- | --- | --- | --- | --- | --- | --- |
| CN(C)c1ccc(C(Cc2ccccc2)C2NC(=S)NC2=O)cc1 (stereo not drawn) | > 75.7 µM (inactive) | > 100 µM (inactive) | > 100 µM (inactive) | > 100 µM (inactive) | 47.8 µM (inactive) | > 100 µM (inactive) | > 100 µM (inactive) | > 100 µM (inactive) | > 100 µM | > 100 µM (inactive) | > 100 µM (inactive) | 91.8 µM (inactive) | > 100 µM (inactive) | > 95.7 µM (inactive) | 28.4 µM (inactive) | > 100 µM (inactive) | 29.1 µM (inactive) | 67 µM (inactive) |
| CN(C)/C=N/n1c2ccccc2c2ccccc21 | > 100 µM (inactive) | > 100 µM (inactive) | > 100 µM (inactive) | > 100 µM (inactive) | > 100 µM (inactive) | > 100 µM (inactive) | > 100 µM (inactive) | > 100 µM (inactive) | > 100 µM | > 100 µM (inactive) | > 100 µM (inactive) | 34 µM (inactive) | > 100 µM (inactive) | > 100 µM (inactive) | > 100 µM (inactive) | > 100 µM (inactive) | > 100 µM (inactive) | > 100 µM (inactive) |
| c1ccc2[nH]c3nc4ccccc4c-3cc2c1 | 0.54 µM (active) | 0.598 µM (active) | 0.232 µM (active) | 0.0824 µM (active) | 0.367 µM (active) | 0.348 µM (active) | 1.26 µM (inactive) | 0.457 µM (active) | 0.229 µM | 0.156 µM (active) | 0.0199 µM (active) | 0.966 µM (active) | 1.31 µM (inactive) | 0.5 µM (active) | 1.03 µM (active) | 0.536 µM (active) | 0.192 µM (active) | 0.632 µM (active) |
| C/C=C(/C)C(=O)O[C@@H]1CCN2CC[C@H](COC(=O)/C(=C/C)CO)C12 (stereo partly drawn) | 63.1 µM (inactive) | > 100 µM (inactive) | > 100 µM (inactive) | 49.4 µM (inactive) | 84.1 µM (inactive) | > 100 µM (inactive) | > 100 µM (inactive) | > 44.9 µM (inactive) | > 100 µM | > 100 µM (inactive) | > 95.3 µM (inactive) | 36.6 µM (inactive) | > 75 µM (inactive) | > 89.1 µM (inactive) | > 100 µM (inactive) | 19.6 µM (inactive) | > 59.8 µM (inactive) | > 100 µM (inactive) |
| O=C1Cc2c(-c3ccccc3)cc(-c3ccc(Cl)cc3)nc2-c2ccccc2N1 | 8.99 µM (inactive) | 4.85 µM (inactive) | 10.1 µM (inactive) | 2.18 µM (inactive) | 5.83 µM (inactive) | 7.89 µM (inactive) | 16.7 µM (inactive) | 3.77 µM (inactive) | 6.68 µM | 6.7 µM (inactive) | 1.73 µM (inactive) | 2.88 µM (inactive) | 2.94 µM (inactive) | 5.89 µM (inactive) | 1.7 µM (inactive) | 9.95 µM (inactive) | 14.5 µM (inactive) | 5.57 µM (inactive) |
| CC(=O)NC(CS/N=N/c1[nH]cnc1C(N)=O)C(=O)O (stereo not drawn) | 10.4 µM (inactive) | 4.29 µM (inactive) | 6.38 µM (inactive) | 14.9 µM (inactive) | 7.87 µM (inactive) | 6.71 µM (inactive) | 1.78 µM (inactive) | > 100 µM (inactive) | 19.5 µM | 6.15 µM (inactive) | 13 µM (inactive) | 16.2 µM (inactive) | > 100 µM (inactive) | 4.16 µM (inactive) | 3.31 µM (inactive) | 2.59 µM (inactive) | 1.16 µM (inactive) | 4.21 µM (inactive) |
| CC(=O)Nc1nnc(S(=O)(=O)NC(=S)Nc2ccc(Cl)cc2)s1 | > 100 µM (inactive) | > 100 µM (inactive) | > 100 µM (inactive) | > 100 µM (inactive) | > 100 µM (inactive) | > 100 µM (inactive) | > 100 µM (inactive) | > 100 µM (inactive) | > 100 µM | > 100 µM (inactive) | > 100 µM (inactive) | > 100 µM (inactive) | > 100 µM (inactive) | > 100 µM (inactive) | > 100 µM (inactive) | > 100 µM (inactive) | > 100 µM (inactive) | > 100 µM (inactive) |
| O=C1OC(C2Cc3ccc4c(c3C2=O)CCC4)c2ccccc21 (stereo not drawn) | 40.5 µM (inactive) | 42.9 µM (inactive) | 30.5 µM (inactive) | > 100 µM (inactive) | 28.2 µM (inactive) | 29.7 µM (inactive) | 91.8 µM (inactive) | 37.7 µM (inactive) | 39.1 µM | 54.5 µM (inactive) | 40.7 µM (inactive) | 36.1 µM (inactive) | 67.1 µM (inactive) | 59.6 µM (inactive) | 38.1 µM (inactive) | 51.1 µM (inactive) | 27.4 µM (inactive) | 42.2 µM (inactive) |
| CCOC(=O)c1cc2c(OC(C)=O)ccc(OC(C)=O)c2s1 | 2.67 µM (inactive) | 1.79 µM (inactive) | 1.96 µM (inactive) | 0.301 µM (active) | 1.73 µM (inactive) | 4.52 µM (inactive) | 4.83 µM (inactive) | 1.56 µM (inactive) | 1.75 µM | 2.1 µM (inactive) | 2.49 µM (inactive) | 1.69 µM (inactive) | 2.15 µM (inactive) | 6.9 µM (inactive) | 4.75 µM (inactive) | 1.77 µM (inactive) | 0.845 µM (active) | 1.82 µM (inactive) |
| O=C(O)c1cccc(OCCO)c1 | > 100 µM (inactive) | > 100 µM (inactive) | > 100 µM (inactive) | > 100 µM (inactive) | > 100 µM (inactive) | > 100 µM (inactive) | > 100 µM (inactive) | > 100 µM (inactive) | > 100 µM | > 100 µM (inactive) | > 100 µM (inactive) | > 100 µM (inactive) | > 100 µM (inactive) | > 100 µM (inactive) | > 100 µM (inactive) | > 100 µM (inactive) | > 100 µM (inactive) | > 100 µM (inactive) |
| C=C(C)C(=O)OC1C[C@H](COC(C)=O)C2CC=C(C)C2C2OC(=O)C(=C)[C@H]12 (stereo partly drawn) | 3.33 µM (inactive) | 2.4 µM (inactive) | 7.24 µM (inactive) | 1.45 µM (inactive) | 4.59 µM (inactive) | 11.7 µM (inactive) | 6.19 µM (inactive) | 3.81 µM (inactive) | 1.91 µM | 2.23 µM (inactive) | 2.98 µM (inactive) | 4.06 µM (inactive) | 2.41 µM (inactive) | 17.1 µM (inactive) | 1.74 µM (inactive) | 2.07 µM (inactive) | 0.815 µM (active) | 4.54 µM (inactive) |
| COc1ccc(/C=C2\C[C@H]3[C@@H]4CC=C5C[C@@H](OC(C)=O)CC[C@]5(C)[C@H]4CC[C@]3(C)\C2=N\O)cc1OC | 20.7 µM (inactive) | > 100 µM (inactive) | 18.8 µM (inactive) | 21.6 µM (inactive) | 31 µM (inactive) | 9.27 µM (inactive) | 39.4 µM (inactive) | 7.4 µM (inactive) | 9.44 µM | 84.9 µM (inactive) | 8.87 µM (inactive) | > 100 µM (inactive) | > 100 µM (inactive) | 6.65 µM (inactive) | 11.4 µM (inactive) | 14.7 µM (inactive) | 5.57 µM (inactive) | 30.5 µM (inactive) |
| CO[C@H]1[C@@H](O)[C@@H](O)O[C@@H](O[C@H]2CC[C@@]3(C)[C@H](CC[C@@H]4[C@@H]3[C@H](O)C[C@]3(C)[C@@H](C5=CC(=O)OC5)CC[C@]43O)C2)[C@@H]1O | 0.28 µM (active) | 0.11 µM (active) | 0.283 µM (active) | 0.0239 µM (active) | 0.08 µM (active) | 0.698 µM (active) | 0.0946 µM (active) | 0.056 µM (active) | 0.281 µM | 0.257 µM (active) | 0.296 µM (active) | 0.407 µM (active) | 0.622 µM (active) | 0.141 µM (active) | 0.192 µM (active) | 0.283 µM (active) | 0.191 µM (active) | 0.355 µM (active) |
| COC(=O)[C@@H]1C=C[C@H](OC2OC(COC(C)=O)C(OC(C)=O)C(OC(C)=O)C2OC(C)=O)n2c(=O)c3ccccc3c(=O)n21 (stereo partly drawn) | 9.16 µM (inactive) | > 10 µM (inactive) | 6.62 µM (inactive) | 1.68 µM (inactive) | 15.7 µM (inactive) | 10.7 µM (inactive) | 16.1 µM (inactive) | 6.05 µM (inactive) | 10.8 µM | 12.4 µM (inactive) | 16.1 µM (inactive) | 27.7 µM (inactive) | 13.2 µM (inactive) | 18.8 µM (inactive) | 16.6 µM (inactive) | 15.3 µM (inactive) | 3.95 µM (inactive) | 9.93 µM (inactive) |
| CCCC(=O)NC(Nc1ccc(F)cc1)(C(F)(F)F)C(F)(F)F | 1.25 µM (inactive) | > 100 µM (inactive) | 19.1 µM (inactive) | 27.4 µM (inactive) | > 79.4 µM (inactive) | 2.49 µM (inactive) | 33.2 µM (inactive) | > 100 µM (inactive) | 5.79 µM | 2.84 µM (inactive) | > 100 µM (inactive) | > 55 µM (inactive) | > 75.2 µM (inactive) | 24.5 µM (inactive) | 12.6 µM (inactive) | 0.387 µM (active) | 1.75 µM (inactive) | 1.09 µM (active) |
| COc1ccccc1/C=C/c1c(N)ncnc1Nc1cccc(Cl)c1 | 16.7 µM (inactive) | 16.1 µM (inactive) | 0.164 µM (active) | 10.8 µM (inactive) | 18.3 µM (inactive) | 36.5 µM (inactive) | 36.6 µM (inactive) | 16 µM (inactive) | 15.9 µM | 34 µM (inactive) | 11.9 µM (inactive) | 16.9 µM (inactive) | 16.4 µM (inactive) | 26.2 µM (inactive) | 14.6 µM (inactive) | 26.5 µM (inactive) | 0.282 µM (active) | 16.6 µM (inactive) |
